Measured values as given in US20180353501A1 (Arvinas, Inc., priority 2017, published 2018).

Biological target: T1, p38δ:PROTAC:VHL ternary complex (Homo sapiens, UniProt O15264+P40337)
T1 construct: encoding a region spanning amino acids 1-365 was PCR-amplified; His6 (N); made in house; host or cells: E. coli (BL21-CodonPlus(DE3)-RIPL for p38δ; BL21(DE3) for GST-VBC)
Assay: In vitro ternary complex pull-down with GST-VBC bait, purified p38δ
Assay type: binding
From the text: FIGS. 15A, 15B, and 15C. Differential p38δ:PROTAC:VHL ternary complex affinities result in distinct cellular ubiquitination outcomes. (A) Both exemplary compound 50 and 46 pull-down p38δ in vitro, however compound 46 maintains ternary complex at lower concentrations. As in FIG. 14A, GST-tagged VBC was used as a bait to trap recombinant p38δ in the presence of vehicle (DMSO) or the indicated concentrations of compound 50 or 46. The rightmost lane represents a 1:25 dilution of initial input protein used in each pull-down. […] GST-VBC was immobilized on glutathione sepharose beads and incubated with MDA-MB-231 whole cell lysate (WCL) in the presence of vehicle (DMSO) or the indicated concentrations of compound 50 or 46. Beads were washed and “trapped” proteins (i.e. those that engage in a ternary complex) were eluted with SDS sample buffer and separated by SDS-PAGE. Samples were assessed by western blot and CUL2 and α-tubulin serve as positive and negative GST-VBC immunoprecipitation controls, respectively. (C) Only exemplary compound 46 ubiquitinates FLAG-p38δ in HeLa cells. As in FIG. 14C, HeLa cells were co-transfected with HA-Ub and FLAG-p38δ and were either treated with vehicle (DMSO) or 1 μM of compound 50 or 1 μM of compound 46 for 2 hours. FLAGimmunoprecipitated lysates were separated by SDS-PAGE and assessed via western blots detecting HA (Ub). […]

T1 sequence (O15264 whole entry, the tested form may be a part): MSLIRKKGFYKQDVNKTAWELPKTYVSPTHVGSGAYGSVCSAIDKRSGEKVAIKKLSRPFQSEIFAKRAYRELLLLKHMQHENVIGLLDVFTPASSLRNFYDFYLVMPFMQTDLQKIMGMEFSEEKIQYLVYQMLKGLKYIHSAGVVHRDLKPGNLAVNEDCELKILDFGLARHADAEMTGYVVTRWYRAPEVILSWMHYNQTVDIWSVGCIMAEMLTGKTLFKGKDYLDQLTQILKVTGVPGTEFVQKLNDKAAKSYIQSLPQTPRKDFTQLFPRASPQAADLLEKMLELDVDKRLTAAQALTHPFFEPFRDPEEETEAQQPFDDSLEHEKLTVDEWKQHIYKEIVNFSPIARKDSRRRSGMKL
T1 sequence (P40337 whole entry, the tested form may be a part): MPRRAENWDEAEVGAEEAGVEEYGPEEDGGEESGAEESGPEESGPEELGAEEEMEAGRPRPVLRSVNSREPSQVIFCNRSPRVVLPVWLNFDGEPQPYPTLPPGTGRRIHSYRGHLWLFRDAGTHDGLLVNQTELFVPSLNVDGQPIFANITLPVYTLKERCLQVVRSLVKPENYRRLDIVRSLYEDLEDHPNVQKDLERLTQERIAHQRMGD
T1 sequence (Q15370 whole entry partner, the tested form may be a part): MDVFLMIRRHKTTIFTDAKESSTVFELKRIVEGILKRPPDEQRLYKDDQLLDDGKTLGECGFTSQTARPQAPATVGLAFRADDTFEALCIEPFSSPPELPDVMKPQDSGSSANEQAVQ
T1 sequence (Q15369 whole entry partner, the tested form may be a part): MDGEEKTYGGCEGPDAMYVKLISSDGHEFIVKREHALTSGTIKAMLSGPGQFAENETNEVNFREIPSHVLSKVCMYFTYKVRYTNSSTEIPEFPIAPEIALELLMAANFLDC

| SMILES | pull-down of purified p38δ on GST-VBC-coated beads |
| --- | --- |
| COc1cc2c(Oc3ccc(NC(=O)C4(C(=O)Nc5ccc(F)cc5)CC4)cc3F)ccnc2cc1OCCOCCOCCOc1cc(-c2scnc2C)ccc1CNC(=O)[C@@H]1C[C@@H](O)CN1C(=O)[C@H](C(C)C)N1Cc2ccccc2C1=O [compound 46] | slightly greater ternary complex pull-down efficiency |
| COc1cc2c(Oc3ccc(NC(=O)C4(C(=O)Nc5ccc(F)cc5)CC4)cc3F)ccnc2cc1OCCCCOCCCCOCC(=O)N[C@H](C(=O)N1C[C@H](O)C[C@H]1C(=O)NCc1ccc(-c2scnc2C)cc1)C(C)(C)C [compound 50, N-(3-fluoro-4-((7-(4-(4-(2-(((S)-1-((2S,4R)-4-hydroxy-2-((4-(4-methylthiazol-5-yl)benzyl)carbamoyl)pyrrolidin-1-yl)-3,3-dimethyl-1-oxobutan-2-yl)amino)-2-oxoethoxy)butoxy)buto-xy)-6-methoxyquinolin-4-yl)oxy)phenyl)-N-(4-fluorophenyl)cyclopropane-1,1-dicarboxa-mide] | able to pull-down purified p38δ on GST-VBC-coated beads in a dose-dependent manner |
